Results on 21 molecules are retold here after BindingDB's records for doi:10.1021/jm0408316 (University of Genoa, 2005).

The target in experiment [1] is Diamine oxidase (Sus scrofa). As to the kind of experiment: Inhibition of putrescine binding to against Diamine oxidase of porcine kidney.
Experiment [2] in a line: Inhibition of benzylamine binding to Benzylamine oxidase of porcine serum.

Structures can show the parent of a compound that is named as a salt.

For orientation: IC50 means the concentration that gives 50% inhibition. A high value points to lower potency. As for `CC(C)(C)Sc1cncc(SC(C)(C)C)c1CN`, the IC50 was greater than 1000 µM in experiment [1] and 1.6 µM in experiment [2].

`CCSc1cncc(SCC)c1CN`: the IC50 in experiment [2] was found to be 0.13 µM.

For `NCc1c(OCCO)cncc1OCCO` [2-{[4-(aminomethyl)-5-(2-hydroxyethoxy)pyridin-3-yl]oxy}ethanol dihydrochloride trihydrate], in experiment [2], the IC50 is 3.2 µM.

`CNc1cncc(N(C)C)c1CN` [4-(aminomethyl)-5-(dimethyl-lambda~5~-azanyl)-N-methylpyridin-3-amine dihydrochloride dihydrate]: the IC50 in experiment [1] worked out at 0.061 µM; in experiment [2], 0.44 µM.

`CCCNc1cncc(N(C)CCC)c1CN` [4-(aminomethyl)-5-[methyl(propyl)-lambda~5~-azanyl]-N-propylpyridin-3-amine dihydrochloride] showed an IC50 in experiment [2] of 350 µM.

In experiment [2], `NCc1ccncc1N(C1CCCC1)C1CCCC1` [4-(aminomethyl)-N,N-dicyclopentylpyridin-3-amine dihydrochloride] came in with a concentration for half-maximal inhibition (IC50) of 100 µM.

As to `NCc1ccncc1NCC1CCCCC1` [4-(aminomethyl)-N-(cyclohexylmethyl)pyridin-3-amine dihydrochloride hydrate], the half-inhibitory concentration (IC50) in experiment [2] was found to be 5.6 µM.

In experiment [2], `NCc1ccncc1NC1CCCCCC1` [4-(aminomethyl)-N-cycloheptylpyridin-3-amine dihydrochloride hydrate] came in with an IC50 of 79 µM.

The molecule `NCc1ccncc1NC1CCCC1` [4-(aminomethyl)-N-cyclopentylpyridin-3-amine dihydrochloride] returned a half-maximal inhibitory concentration (IC50) in experiment [2] of 16 µM.

In the case of `NCc1ccncc1NC1CC1` [4-(aminomethyl)-N-cyclopropylpyridin-3-amine dihydrochloride hydrate], in experiment [2], the IC50 was greater than 100 µM.

As to `CCNc1cncc(N(C)CC)c1CN` [4-(aminomethyl)-N-ethyl-5-[ethyl(methyl)-lambda~5~-azanyl]pyridin-3-amine dihydrochloride], the IC50 in experiment [2] was 0.02 µM.

Turning to `CCNc1cnccc1CN` [4-(aminomethyl)-N-ethylpyridin-3-amine dihydrochloride], the IC50 in experiment [2] was determined as 2 µM.

As to `CC(C)Nc1cncc(N(C)C(C)C)c1CN` [4-(aminomethyl)-N-isopropyl-5-[isopropyl(methyl)-lambda~5~-azanyl]pyridin-3-amine dihydrochloride], the concentration for half-maximal inhibition (IC50) in experiment [1] is 1 µM; in experiment [2], greater than 0.1 µM.

Take `CC(C)Nc1cnccc1CN` [4-(aminomethyl)-N-isopropylpyridin-3-amine dihydrochloride]: the IC50 in experiment [2] was determined as 100 µM.

Turning to `CNc1cncc(NC)c1CN` [4-(aminomethyl)-N-methyl-5-(methyl-lambda~5~-azanyl)pyridin-3-amine dihydrochloride], the results for the half-inhibitory concentration (IC50) in experiment [1] and in experiment [2] were 0.12 µM and 1.7 µM, respectively.

In experiment [2], `CNc1cnccc1CN` [4-(aminomethyl)-N-methylpyridin-3-amine dihydrochloride] gave an IC50 of 8 µM.

The molecule `NCc1ccncc1N` [4-(aminomethyl)pyridin-3-amine dihydrochloride] had an IC50 in experiment [2] of 16 µM.

The molecule `NCc1c(OCCCCO)cncc1OCCCCO` [4-{[4-(aminomethyl)-5-(4-hydroxybutoxy)pyridin-3-yl]oxy}butan-1-ol dihydrochloride] yielded an IC50 in experiment [2] of 0.15 µM.

In experiment [2], `CCOc1cncc(OCC)c1CN` [(3,5-diethoxypyridin-4-yl)methylamine dihydrochloride] showed an IC50 of 0.17 µM.

As to `CNc1ccccc1CN` [N-[2-(aminomethyl)phenyl]-N-methylamine dihydrochloride], the IC50 in experiment [2] is greater than 100 µM.

Molecule `CCOc1cncc(OCc2ccccc2)c1CN` [[3-(benzyloxy)-5-ethoxypyridin-4-yl]methylamine dihydrochloride] had a half-maximal inhibitory concentration (IC50) in experiment [2] of 5 µM.
